From publication PMC8459971, “Evaluation of the hepatotoxicity of the novel GPR40 (FFAR1) agonist CPL207280 in the rat and monkey” (PLoS ONE, 2021)
“And” between values parts separate entries of the source, which are not always exact repeats. Identical values can stand only once. Like-named read-outs stand apart in the source and are kept apart here.

Experiments:
[1] = Single-dose pharmacokinetics in rats (p.o. and i.v.); type: in vivo, rat; set-up: plasma conc: unit not given here
[2] = Stability in microsomes, rat; type: in vitro ADME; details: for average DEG [%]: rat microsomes, with cofactors
Procedure: (§1) The final incubation volume was 500 μL. Two control compounds (verapamil and donepezil) were included for each microsomal species, along with the appropriate vehicle control. The reactions were terminated by transferring 50 μL of incubate to 100 μL methanol containing an internal standard (metoprolol) at appropriate time points (0, 10, 20, 40, 60, and 120 min for the test compound and 0, 5, 10, 20, 40, and 60 min for the control compounds). The termination plates were centrifuged at 4000 x g at 4°C for 30 min to precipitate the protein. The supernatants were then collected for analysis, and LC-MS/MS was used for detection purposes. The system consisted of an Acquity™ Binary Solvent Manager, Acquity™ 4-position heated column manager, 2777 Ultra High Pressure Autosampler, and a Xevo-TQ MS triple quadrupole mass spectrometer (Waters Ltd., Herts, UK). This process was carried out twice.

[3] = Stability in microsomes, monkey; type: in vitro ADME; details: for average DEG [%]: monkey microsomes, with cofactors
Procedure: as §1

OATP1B1 = biological target: T1, OATP1B1 (Homo sapiens, UniProt Q9Y6L6); test: Uptake transporter inhibition assay, OATP1B1
T1 sequence (Q9Y6L6 1-691): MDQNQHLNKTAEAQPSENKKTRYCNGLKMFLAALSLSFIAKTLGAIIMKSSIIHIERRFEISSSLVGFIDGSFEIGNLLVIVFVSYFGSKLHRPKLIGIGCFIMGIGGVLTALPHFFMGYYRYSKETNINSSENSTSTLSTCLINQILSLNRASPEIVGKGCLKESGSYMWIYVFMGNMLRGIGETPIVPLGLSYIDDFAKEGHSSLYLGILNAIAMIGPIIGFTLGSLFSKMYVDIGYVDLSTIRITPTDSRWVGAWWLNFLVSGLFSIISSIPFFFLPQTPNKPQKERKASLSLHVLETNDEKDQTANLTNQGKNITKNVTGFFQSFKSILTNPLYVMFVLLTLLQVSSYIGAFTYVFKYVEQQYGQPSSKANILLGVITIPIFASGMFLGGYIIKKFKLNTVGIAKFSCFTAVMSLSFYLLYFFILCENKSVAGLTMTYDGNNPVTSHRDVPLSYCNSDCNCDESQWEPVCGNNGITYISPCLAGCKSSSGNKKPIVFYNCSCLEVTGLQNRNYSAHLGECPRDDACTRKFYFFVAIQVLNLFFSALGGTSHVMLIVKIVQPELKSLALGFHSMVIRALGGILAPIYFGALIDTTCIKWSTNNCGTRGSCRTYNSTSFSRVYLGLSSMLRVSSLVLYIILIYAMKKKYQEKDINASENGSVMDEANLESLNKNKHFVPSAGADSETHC
Procedure: (§2) For the uptake transporter inhibition assay, cells were washed twice with 100 μL of the appropriate buffer (HK, pH 7.4) for OATP1B1, followed by HBSS (pH 7.4) for (NTCP, OAT1, OAT2v1, OATP1A2, and OATP1B3). Uptake experiments were carried out at 37 ± 1°C in 50 μL of the respective buffer containing the probe substrate and the compound or solvent. […] After the experiment, cells were washed twice with 100 μL of cold appropriate buffer and lysed with 50 μL of 0.1 M NaOH. Radiolabeled probe substrate transport was determined by measuring an aliquot (35 μL) from each well for liquid scintillation counting.

OATP1B3 = biological target: T2, OATP1B3 (Homo sapiens, UniProt Q9NPD5); test: Uptake transporter inhibition assay, OATP1B3; details: human, transformed HEK cells expressing OATP1B3, pH 7.4
T2 sequence (Q9NPD5 1-702): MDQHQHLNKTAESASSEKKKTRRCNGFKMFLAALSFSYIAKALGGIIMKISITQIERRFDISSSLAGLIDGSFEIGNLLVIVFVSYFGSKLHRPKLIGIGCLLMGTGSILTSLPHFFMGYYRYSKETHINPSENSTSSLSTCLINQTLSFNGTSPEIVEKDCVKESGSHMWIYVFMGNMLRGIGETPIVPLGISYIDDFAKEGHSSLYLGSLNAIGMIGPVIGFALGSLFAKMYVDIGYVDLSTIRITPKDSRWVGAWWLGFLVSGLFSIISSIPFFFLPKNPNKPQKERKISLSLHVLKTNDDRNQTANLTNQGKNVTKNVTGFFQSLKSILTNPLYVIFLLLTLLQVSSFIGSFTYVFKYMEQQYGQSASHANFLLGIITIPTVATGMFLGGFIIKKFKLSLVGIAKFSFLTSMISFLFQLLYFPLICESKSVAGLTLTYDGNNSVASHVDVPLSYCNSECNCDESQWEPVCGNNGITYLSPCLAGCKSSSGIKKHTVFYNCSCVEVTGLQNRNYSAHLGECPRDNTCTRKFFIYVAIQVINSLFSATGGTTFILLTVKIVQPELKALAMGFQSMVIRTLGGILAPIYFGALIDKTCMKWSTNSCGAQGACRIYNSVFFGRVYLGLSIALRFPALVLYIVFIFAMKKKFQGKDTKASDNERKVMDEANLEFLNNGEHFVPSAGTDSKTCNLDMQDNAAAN
Procedure: as §2

MRP2 = MRP2 (Homo sapiens, UniProt Q92887); test: Vesicular transport inhibition assay, MRP2; details: for Accumulation (counts per minute; CPM) with AMP / Accumulation (counts per minute; CPM) with ATP: MRP2;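 also: membrane vesicles with probe substrate plus 2 mM glutathione, incubated with 4 mM ATP or AMP (AMP as background control), vesicle-retained substrate measured by liquid scintillation counting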;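 as to Accumulation (counts per minute; CPM) with AMP: ATP 4 mM vs AMP background separates transporter uptake from diffusion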;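 as to Accumulation (counts per minute; CPM) with ATP: ATP 4 mM vs AMP background separates transporter uptake from diffusion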
Chain of MRP2 (Q92887 whole entry, the tested form may be a part): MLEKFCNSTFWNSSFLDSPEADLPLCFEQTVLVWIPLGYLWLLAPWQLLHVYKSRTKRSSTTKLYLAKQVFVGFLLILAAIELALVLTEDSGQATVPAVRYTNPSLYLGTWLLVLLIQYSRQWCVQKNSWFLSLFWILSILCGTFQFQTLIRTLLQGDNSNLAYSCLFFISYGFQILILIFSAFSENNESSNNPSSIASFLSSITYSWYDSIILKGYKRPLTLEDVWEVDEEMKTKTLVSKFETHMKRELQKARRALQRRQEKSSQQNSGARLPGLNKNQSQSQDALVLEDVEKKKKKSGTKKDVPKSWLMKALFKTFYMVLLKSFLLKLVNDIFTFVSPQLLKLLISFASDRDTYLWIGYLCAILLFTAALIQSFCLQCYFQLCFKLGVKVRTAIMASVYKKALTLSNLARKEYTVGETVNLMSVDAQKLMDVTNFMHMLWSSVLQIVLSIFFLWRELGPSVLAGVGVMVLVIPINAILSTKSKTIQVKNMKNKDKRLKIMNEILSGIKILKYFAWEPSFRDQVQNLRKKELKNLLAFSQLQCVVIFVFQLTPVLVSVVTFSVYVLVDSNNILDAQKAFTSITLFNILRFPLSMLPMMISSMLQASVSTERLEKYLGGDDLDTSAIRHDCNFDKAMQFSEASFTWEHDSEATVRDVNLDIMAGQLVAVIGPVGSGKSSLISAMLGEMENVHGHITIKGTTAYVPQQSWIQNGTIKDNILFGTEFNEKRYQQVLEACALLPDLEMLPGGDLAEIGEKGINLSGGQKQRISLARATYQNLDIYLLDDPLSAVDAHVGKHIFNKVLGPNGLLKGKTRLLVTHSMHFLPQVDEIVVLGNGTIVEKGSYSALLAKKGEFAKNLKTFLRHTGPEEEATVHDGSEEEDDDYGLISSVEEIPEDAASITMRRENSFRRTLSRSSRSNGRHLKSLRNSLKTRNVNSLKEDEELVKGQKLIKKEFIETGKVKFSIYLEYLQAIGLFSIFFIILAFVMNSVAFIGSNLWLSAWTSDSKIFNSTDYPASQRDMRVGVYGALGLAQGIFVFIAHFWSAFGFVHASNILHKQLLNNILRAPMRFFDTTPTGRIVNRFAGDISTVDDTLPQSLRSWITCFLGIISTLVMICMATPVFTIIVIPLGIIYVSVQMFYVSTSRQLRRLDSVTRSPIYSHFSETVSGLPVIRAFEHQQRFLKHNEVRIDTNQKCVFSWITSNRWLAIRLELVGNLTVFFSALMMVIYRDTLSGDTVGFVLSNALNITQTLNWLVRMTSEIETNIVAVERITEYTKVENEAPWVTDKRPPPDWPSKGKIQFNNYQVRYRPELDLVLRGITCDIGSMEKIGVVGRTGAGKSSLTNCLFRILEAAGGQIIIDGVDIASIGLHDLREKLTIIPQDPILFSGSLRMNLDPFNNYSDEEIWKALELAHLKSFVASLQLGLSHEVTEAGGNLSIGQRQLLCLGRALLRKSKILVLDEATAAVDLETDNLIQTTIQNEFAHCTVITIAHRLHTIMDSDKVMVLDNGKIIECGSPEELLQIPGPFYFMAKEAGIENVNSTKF
Procedure: In the vesicular transport inhibition assay (for BSEP, MRP) compounds were incubated with membrane vesicle preparations and the probe substrate. Incubations were carried out in the presence of 4 mM ATP or AMP to distinguish between transporter-mediated uptake and passive diffusion into the vesicles. For MRP2 and MRP3, reactions were carried out in the presence of 2 mM glutathione. Compounds were added to the reaction mixture in 0.75 μL of solvent (1% of the final incubation volume). […] Reactions were initiated by the addition of 25 μL of 12 mM MgATP (or 12 mM AMP in assay buffer as a background control) and preincubated separately. Reactions were quenched by the addition of 200 μL of ice-cold washing buffer and immediate filtration via glass fiber filters mounted on a 96-well plate (filter plate). The filters were washed (5 × 200 μL of ice-cold washing buffer), dried, and the amount of substrate inside the filtered vesicles was determined by liquid scintillation counting.

[4] = rat, dose 200 mg/kg, Day 1, individual animals, 200 mg/kg
[5] = summary comparison CPL207280 vs TAK-875
[6] = Rat (Sprague Dawley) microsomes, mean n = 2
[7] = Monkey (Cynomolgus) microsomes, mean n = 2

For `CC#C[C@@H](CC(=O)O)c1ccc(OCC(C)=C(C)C)cc1` [CPL207280], the AUC ([1]; Wistar Han, rat, plasma, oral, 200 mg/kg, rat, dose 200 mg/kg, Day 1, individual animals, read-out: exposure - AUC) was 1240 µg·h/mL, the plasma conc ([1]; rat, 3 mg/kg i.v., 0.08 h, single animals, 3 mg/kg) was 18185.2 and 14086.9 and 17991 and the plasma conc ([1]; rat, 3 mg/kg i.v., 0.5 h, single animals, 3 mg/kg) was 13324.4 and 11131.5 and 13374.4. The plasma conc ([1]; rat, 3 mg/kg i.v., 1 h, single animals, 3 mg/kg) was 9899.4 and 7427.8 and 10049.5, the plasma conc ([1]; rat, 3 mg/kg i.v., 2 h, single animals, 3 mg/kg) was 3412.2 and 2931.7 and 2551.4 and the plasma conc ([1]; rat, 3 mg/kg i.v., 4 h, single animals, 3 mg/kg) was 1459.2 and 957.7 and 1370.6. For the same compound, the plasma conc ([1]; rat, 3 mg/kg i.v., 7 h, single animals, 3 mg/kg) was 919.9 and 275.5 and 163.6 and 442.9, the plasma conc ([1]; rat, 3 mg/kg i.v., 12 h, single animals, 3 mg/kg) was 109.4 and 40.7 and 9.1 and 38.7 and the plasma conc ([1]; rat, 3 mg/kg p.o., 0.5 h, single animals, 3 mg/kg) was 1251.2 and 962.3 and 1047.3 and 2942.9 and 2148.4. For the same compound, the plasma conc ([1]; rat, 3 mg/kg p.o., 1 h, single animals, 3 mg/kg) was 1116.7 and 1016.5 and 1560.5 and 2895.7 and 1904.8, the plasma conc ([1]; rat, 3 mg/kg p.o., 2 h, single animals, 3 mg/kg) was 850.9 and 932.5 and 1176.4 and 3463.8 and 1438.7 and the plasma conc ([1]; rat, 3 mg/kg p.o., 4 h, single animals, 3 mg/kg) was 878.1 and 1000.4 and 1366.6 and 4024.4 and 840.4. The plasma conc ([1]; rat, 3 mg/kg p.o., 8 h, single animals, 3 mg/kg) was 569.6 and 2137.2 and 517.2 and 1993.4 and 909.2, the plasma conc ([1]; rat, 3 mg/kg p.o., 12 h, single animals, 3 mg/kg) was 324.7 and 347.6 and 456.6 and 204.4 and 474.2 and the plasma conc ([1]; rat, 3 mg/kg p.o., 24 h, single animals, 3 mg/kg) was 48.1 and 66.5 and 10.8 and 7 and 230.9. For the same compound, the Cmax [1, 4] was 183679 ng/mL and 165539 ng/mL and 190632 ng/mL and 189701 ng/mL and 159390 ng/mL, the “exposure - AUC” value [1, 4] was 1896 µg·h/mL and 1692 µg·h/mL and 1420 µg·h/mL and 1892 µg·h/mL and 1506 µg·h/mL and the Cmax ([1]; rat, plasma, 200 mg/kg, rat, dose 200 mg/kg, Day 1, individual animals, read-out: Cmax) was 198000 ng/mL. It also gave a concentration at 0.08 h ([1]; rat, plasma, iv, 3 mg/kg, rat, 3 mg/kg i.v., 0.08 h, single animals, read-out: plasma conc) of 19200 ng/mL, a concentration at 0.5 h ([1]; rat, plasma, iv, 3 mg/kg, rat, 3 mg/kg i.v., 0.5 h, single animals, read-out: plasma conc) of 16300 ng/mL and a concentration at 1 h ([1]; rat, plasma, iv, 3 mg/kg, rat, 3 mg/kg i.v., 1 h, single animals, read-out: plasma conc) of 10900 ng/mL. The concentration at 2 h ([1]; rat, plasma, iv, 3 mg/kg, rat, 3 mg/kg i.v., 2 h, single animals, read-out: plasma conc) was 3720 ng/mL, the concentration at 4 h ([1]; rat, plasma, iv, 3 mg/kg, rat, 3 mg/kg i.v., 4 h, single animals, read-out: plasma conc) was 1570 ng/mL and the Tmax ([1]; rat, plasma, iv, 3 mg/kg, rats, 3 mg/kg i.v.) was 4.98 min. For the same compound, the Cmax ([1]; rat, plasma, iv, 3 mg/kg, rats, 3 mg/kg i.v., n = 5, read-out: Cmax) was 17400 ± 2250 ng/mL, the AUC ([1]; rat, plasma, iv, 3 mg/kg, rats, 3 mg/kg i.v., read-out: AUC) was 27.1 ± 1.62 µg·h/mL and the bioavailability ([1]; rat, plasma, oral, rats, 3 mg/kg p.o. vs i.v., read-out: F (bioavailability)) was 63%. For the same compound, the Tmax ([1]; rat, plasma, po, 3 mg/kg, rats, 3 mg/kg p.o.) was 60 min, the AUC ([1]; rat, plasma, po, 3 mg/kg, rats, 3 mg/kg p.o., read-out: AUC) was 17.6 ± 4.08 µg·h/mL and the Vd ([1]; rat, plasma, rats, 3 mg/kg) was 0.2 ± 0.01 L/kg. For the same compound, the k el ([1]; rat, plasma, rats, 3 mg/kg) was 0.000144 s⁻¹, the “greater Kel than TAK-875” value ([1]; rats, 3 mg/kg) was 2 x and the Bioavailability in rats [1, 5] was “>”. The “Exposure in rat plasma for the same dose” value [1, 5] was “≥”, the half-life at 3 μM [2, 6] was 69 min and the microsomal CLint at 3 μM [2, 6] was 21.1 µL/min/mg. The “average DEG [%]” value ([2]; 0 min) was 100.0%, the “average DEG [%]” value ([2]; 20 min) was 80.9% and the “average DEG [%]” value ([2]; 40 min) was 64.9%. For the same compound, the “average DEG [%]” value ([2]; 60 min) was 55.0%, the half-life at 3 μM [3, 7] was 23 min and the microsomal CLint at 3 μM [3, 7] was 60.9 µL/min/mg. For the same compound, the “average DEG [%]” value ([3]; 0 min) was 100.0%, the “average DEG [%]” value ([3]; 20 min) was 64.8% and the “average DEG [%]” value ([3]; 40 min) was 34.1%. The “average DEG [%]” value ([3]; 60 min) was 16.3%, the IC50 (OATP1B1) was 17.9 µM and the “fold less inhibitory potency than TAK-875, OATP1B1” value (OATP1B1) was “at least 10 fold”. The IC50 (OATP1B3) was 42.9 µM, the “Accumulation (counts per minute; CPM) with AMP” value (MRP2; conc 0.10 µM) was 198 CPM and 164 CPM and the “Accumulation (counts per minute; CPM) with ATP” value (MRP2; conc 0.10 µM) was 2936 CPM and 2989 CPM. For the same compound, the “Accumulation (counts per minute; CPM) with AMP” value (MRP2; conc 1.00 µM) was 160 CPM and 140 CPM, the “Accumulation (counts per minute; CPM) with ATP” value (MRP2; conc 1.00 µM) was 2976 CPM and 3333 CPM and the “Accumulation (counts per minute; CPM) with AMP” value (MRP2; conc 3.00 µM) was 225 CPM and 205 CPM. For the same compound, the “Accumulation (counts per minute; CPM) with ATP” value (MRP2; conc 3.00 µM) was 3200 CPM and 3253 CPM, the “Accumulation (counts per minute; CPM) with AMP” value (MRP2; conc 10.00 µM) was 218 CPM and 206 CPM and the “Accumulation (counts per minute; CPM) with ATP” value (MRP2; conc 10.00 µM) was 3353 CPM and 3206 CPM. The “Accumulation (counts per minute; CPM) with AMP” value (MRP2; conc 30.00 µM) was 203 CPM and 192 CPM, the “Accumulation (counts per minute; CPM) with ATP” value (MRP2; conc 30.00 µM) was 3191 CPM and 3541 CPM and the “Accumulation (counts per minute; CPM) with AMP” value (MRP2; conc 100.00 µM) was 195 CPM and 185 CPM. The “Accumulation (counts per minute; CPM) with ATP” value (MRP2; conc 100.00 µM) was 3680 CPM and 3660 CPM, the “Accumulation (counts per minute; CPM) with AMP” value (MRP2; conc 300.00 µM) was 129 CPM and 125 CPM and the “Accumulation (counts per minute; CPM) with ATP” value (MRP2; conc 300.00 µM) was 3852 CPM and 4100 CPM. For the same compound, the “MRP2 Estimated IC50 (95% CI of IC50)” value (MRP2; vesicles, up to 300μM, n = 2) was “no affinity”.
